Measured values taken from ChEMBL document CHEMBL1141008, “Identification of small molecule agonists of the motilin receptor” (Bioorg Med Chem Lett, 2008).

Key:
Motilin receptor [1] = molecular target: T1, Motilin receptor (Homo sapiens, UniProt O43193); assay: Agonist activity at human recombinant motilin receptor expressed in CHO cells by calcium mobilization-based FLIPR assay; assay type: functional, cell-based
Motilin receptor [2] = molecular target: T1, Motilin receptor; assay: Intrinsic activity at human recombinant motilin receptor expressed in CHO cells by calcium mobilization-based FLIPR assay relative to motilin; assay type: functional, cell-based
Motilin receptor [3] = molecular target: T1, Motilin receptor; assay: Agonist activity at human recombinant motilin receptor expressed in HEK293 cells by calcium mobilization-based FLIPR assay; assay type: functional, cell-based
[4] = Half life in New Zealand White rabbit gastric antrum at 10 uM; assay type: ADME, tissue-based, Oryctolagus cuniculus, Stomach
Stomach [5] = assay: Increase in electric field stimulated contractile response in New Zealand White rabbit gastric antrum at 10 uM pre-incubated for 15 mins; assay type: functional, Oryctolagus cuniculus
[6] = Selectivity for human recombinant motilin receptor over ghrelin receptor in FLIPR assay
[7] = molecular target: Growth hormone secretagogue receptor type 1 (Homo sapiens) (UniProt Q92847); assay: Activity at ghrelin receptor in human recombinant cells by calcium mobilization-based FLIPR assay
Stomach [8] = assay: Increase in electric field stimulated contractile response in New Zealand White rabbit gastric antrum at 0.3 uM preincubated for 15 mins; assay type: functional, Oryctolagus cuniculus
[9] = Half life in New Zealand White rabbit gastric antrum at 0.3 uM; assay type: ADME, tissue-based, Oryctolagus cuniculus, Stomach
Stomach [10] = assay: Increase in electric field stimulated contractile response in New Zealand White rabbit gastric antrum at 3 uM pre-incubated for 15 mins; assay type: functional, Oryctolagus cuniculus
[11] = Half life in New Zealand White rabbit gastric antrum at 3 uM; assay type: ADME, tissue-based, Oryctolagus cuniculus, Stomach

T1 sequence (O43193 whole entry): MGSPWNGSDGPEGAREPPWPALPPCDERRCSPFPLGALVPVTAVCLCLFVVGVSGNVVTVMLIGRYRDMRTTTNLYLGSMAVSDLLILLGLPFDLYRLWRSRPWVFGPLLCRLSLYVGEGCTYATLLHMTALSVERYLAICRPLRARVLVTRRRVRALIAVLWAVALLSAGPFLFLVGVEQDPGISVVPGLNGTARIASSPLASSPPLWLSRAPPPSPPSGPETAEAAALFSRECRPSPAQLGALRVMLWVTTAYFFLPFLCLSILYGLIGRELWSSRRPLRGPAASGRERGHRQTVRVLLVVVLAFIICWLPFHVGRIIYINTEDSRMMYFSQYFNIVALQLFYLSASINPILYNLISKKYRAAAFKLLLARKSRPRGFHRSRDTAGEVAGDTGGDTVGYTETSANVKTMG
Chain of Growth hormone secretagogue receptor type 1 (Homo sapiens) (Q92847 whole entry, looked up): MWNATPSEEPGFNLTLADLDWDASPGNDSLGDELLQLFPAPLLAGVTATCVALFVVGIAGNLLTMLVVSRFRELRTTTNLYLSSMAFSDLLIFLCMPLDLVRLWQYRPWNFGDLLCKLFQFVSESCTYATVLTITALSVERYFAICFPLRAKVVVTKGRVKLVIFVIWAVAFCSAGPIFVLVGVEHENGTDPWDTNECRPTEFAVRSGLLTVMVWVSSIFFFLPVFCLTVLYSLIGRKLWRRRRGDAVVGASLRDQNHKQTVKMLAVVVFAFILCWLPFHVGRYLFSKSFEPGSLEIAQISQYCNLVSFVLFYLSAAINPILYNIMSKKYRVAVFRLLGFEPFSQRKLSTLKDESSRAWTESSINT

Row | SMILES | EC50 (Motilin receptor [1]) | Activity (Motilin receptor [2]) | EC50 (Motilin receptor [3]) | also measured
1 | COCCCN(Cc1ccccc1-c1ccc(CN2CCCCC2)cc1)C(=O)Cc1ccccc1 | > 12.6 µM | – | – | –
2 | COCCCN(Cc1ccccc1-c1ccc(CN2CCNCC2)cc1)C(C)=O | – | – | 0.631 µM | –
3 | COCCCN(Cc1ccccc1-c1ccc(CN2CCNCC2)cc1)S(=O)(=O)c1ccc(F)cc1 | – | – | 0.631 µM | –
4 | COCCCN(Cc1ccccc1-c1ccc(C(=O)N2CCNCC2)cc1)C(=O)Cc1ccccc1 | > 3.16 µM | – | – | –
5 | COCCCN(Cc1ccccc1-c1ccc(CN2CCN(C)CC2)cc1)C(=O)Cc1ccccc1 | > 12.6 µM | – | – | –
6 | CC[C@H](C)[C@H](NC(=O)[C@@H]1CCCN1C(=O)[C@@H](NC(=O)[C@@H](N)Cc1ccccc1)C(C)C)C(=O)N[C@@H](Cc1ccccc1)C(=O)N[C@H](C(=O)N[C@@H](Cc1ccc(O)cc1)C(=O)NCC(=O)N[C@@H](CCC(=O)O)C(=O)N[C@@H](CC(C)C)C(=O)N[C@@H](CCC(N)=O)C(=O)N[C@@H](CCCN=C(N)N)C(=O)N[C@@H](CCSC)C(=O)N[C@@H](CCC(N)=O)C(=O)N[C@@H](CCC(=O)O)C(=O)N[C@@H](CCCCN)C(=O)N[C@@H](CCC(=O)O)C(=O)N[C@@H](CCCN=C(N)N)C(=O)N[C@@H](CC(N)=O)C(=O)N[C@@H](CCCCN)C(=O)NCC(=O)N[C@@H](CCC(N)=O)C(=O)O)[C@@H](C)O [MOTILIN] | – | – | – | Activity (Stomach [8]): 506%; half-life at 0.3 µM [9]: 9 min
7 | COCCCN(Cc1ccccc1-c1ccc(CN(C)CCN(C)C)cc1)C(=O)Cc1ccccc1 | 3.16 µM | 0.4 | – | –
8 | CC[C@H]1OC(=O)[C@H](C)[C@@H](O[C@H]2C[C@@](C)(OC)[C@@H](O)[C@H](C)O2)[C@H](C)[C@@H](O[C@@H]2O[C@H](C)C[C@H](N(C)C)[C@H]2O)[C@](C)(O)C[C@@H](C)C(=O)[C@H](C)[C@@H](O)[C@]1(C)O [ERYTHROMYCIN] | – | – | – | Activity (Stomach [10]): 490%; half-life at 3 µM [11]: 23 min
9 | COCCCN(Cc1ccccc1-c1ccc(CN2CCNCC2)cc1)C(=O)Cc1ccccc1 | 0.794 µM | 0.7 | – | –
10 | COCCCN(Cc1ccccc1-c1ccc(CN2CCOCC2)cc1)C(=O)Cc1ccccc1 | > 12.6 µM | – | – | –
11 | COCCCN(Cc1ccccc1-c1ccc(CN2CCN(C(C)=O)CC2)cc1)C(=O)Cc1ccccc1 | > 12.6 µM | – | – | –

Continued, in another order:

Row | EC50 (Motilin receptor [1]) | Activity (Motilin receptor [2]) | EC50 (Motilin receptor [3]) | SMILES | also measured
12 | 5.01 µM | 0.9 | – | COc1cccc(CCN(Cc2ccccc2-c2ccc(N3CCNCC3)cc2)C(=O)NC2CCCCC2)c1 | –
13 | – | – | 0.501 µM | COCCCN(Cc1ccccc1-c1ccc(CN2CCNCC2)cc1)C(=O)NC1CCCCC1 | –
14 | 0.0501 µM | 0.9 | 0.1 µM | COc1cccc(CCN(Cc2ccccc2-c2ccc(CN3CCNCC3)cc2)C(=O)NC2CCCCC2)c1 | –
15 | > 12.6 µM | – | – | COc1cccc(CCN(Cc2ccccc2-c2ccc(CCN3CCNCC3)cc2)C(=O)NC2CCCCC2)c1 | –
16 | – | – | 1 µM | COc1cccc(CCN(Cc2ccccc2-c2ccc(CN3CCNCC3)cc2)C(=O)Cc2ccccc2)c1 | –
17 | – | – | 5.01 µM | COc1cccc(CCNCc2ccccc2-c2ccc(CN3CCNCC3)cc2)c1 | –
18 | – | 1 | – | COc1cccc(CCN(Cc2ccccc2-c2ccc(CN3C[C@@H](C)N[C@@H](C)C3)cc2)C(=O)NC2CCCCC2)c1 | half-life at 10 µM [4]: 39 min; Activity (Stomach [5]): 182%; fold change (FC) [6]: 10; EC50 [7]: 0.126 µM
19 | – | – | 1.58 µM | O=C(NC1CCCCC1)N(CCc1ccccc1)Cc1ccccc1-c1cccc(CN2CCNCC2)c1 | –
20 | 0.398 µM | 0.6 | – | COc1cccc(CCN(Cc2ccccc2-c2ccc(CC3CCNCC3)cc2)C(=O)NC2CCCCC2)c1 | –
